This is an account of results in patent US8129396B2, “2-[1H-benzimidazol-2(3H)-ylidene]-2-(pyrimidin-2-yl)acetamides and 2-[benzothiazol-2(3H)-ylidene]-2-(pyrimidin-2-yl)acetamides as kinase inhibitors” (Telik, Inc., priority 2008, dated 2012).

Test [1] deals with T1, Aurora A kinase (Homo sapiens, UniProt O14965).
T1 construct: purchased Upstate Biotech
T1 sequence (O14965 1-403): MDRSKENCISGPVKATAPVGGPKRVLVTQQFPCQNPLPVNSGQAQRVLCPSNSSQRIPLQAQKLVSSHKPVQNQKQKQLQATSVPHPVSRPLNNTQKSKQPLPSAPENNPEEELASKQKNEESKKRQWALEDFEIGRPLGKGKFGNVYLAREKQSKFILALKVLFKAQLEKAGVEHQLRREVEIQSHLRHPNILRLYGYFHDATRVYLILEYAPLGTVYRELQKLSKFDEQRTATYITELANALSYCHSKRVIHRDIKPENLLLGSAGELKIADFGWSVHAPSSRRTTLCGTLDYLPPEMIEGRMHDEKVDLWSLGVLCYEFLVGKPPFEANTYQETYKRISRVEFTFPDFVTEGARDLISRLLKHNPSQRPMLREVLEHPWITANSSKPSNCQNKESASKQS
Nature of the test: Aurora A kinase assay (IMAP fluorescence polarization). Type of test: biochemical. Conditions: 10 μM ATP; rounded to 1 significant figure; read-out: Aur-A IC50. A digest of the protocol: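 Compounds (eight 3-fold dilutions, 2.5% DMSO final) were preincubated 5 min at room temperature with Aurora A kinase in buffer with 1 mM DTT. Reaction with 100 nM fluorescein-PKAtide and 10 μM ATP ran 45 min at room temperature, then was stopped with IMAP binding reagent; fluorescence polarization was read after 30 min.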
On the technique in general: In fluorescence polarisation assays a small probe gives low polarisation when free and higher when bound to something large.

For test [2], the target named is T2, Aurora B kinase (Homo sapiens, UniProt Q96GD4).
T2 construct: purchased BPS Bioscience
T2 sequence (Q96GD4 whole entry): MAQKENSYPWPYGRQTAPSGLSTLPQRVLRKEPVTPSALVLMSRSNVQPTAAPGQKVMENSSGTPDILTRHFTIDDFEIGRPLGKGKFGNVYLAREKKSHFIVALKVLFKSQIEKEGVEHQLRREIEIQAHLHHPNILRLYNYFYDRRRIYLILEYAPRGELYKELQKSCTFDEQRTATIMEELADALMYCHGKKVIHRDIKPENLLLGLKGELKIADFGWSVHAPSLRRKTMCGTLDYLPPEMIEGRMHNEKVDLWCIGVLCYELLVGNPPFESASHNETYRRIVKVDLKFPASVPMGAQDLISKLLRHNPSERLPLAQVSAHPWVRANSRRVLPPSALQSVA
Nature of the test: Aurora B kinase assay (IMAP fluorescence polarization). Type of test: biochemical. Conditions: 10 μM ATP; rounded to 1 significant figure; read-out: Aur-B IC50. An outline of the steps:
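Reaction started with 100 nM fluorescein-labelled PKAtide and 10 μM ATP, run 45 min at room temperature, then stopped with IMAP binding reagent (1:400). After 30 min shaking at room temperature, fluorescence polarization read; run in duplicate with solvent control.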

For test [3], the target named is T3, VEGFR2 kinase (Homo sapiens, UniProt P35968).
T3 construct: purchased Cell Signaling Technology
T3 sequence (P35968 20-1356): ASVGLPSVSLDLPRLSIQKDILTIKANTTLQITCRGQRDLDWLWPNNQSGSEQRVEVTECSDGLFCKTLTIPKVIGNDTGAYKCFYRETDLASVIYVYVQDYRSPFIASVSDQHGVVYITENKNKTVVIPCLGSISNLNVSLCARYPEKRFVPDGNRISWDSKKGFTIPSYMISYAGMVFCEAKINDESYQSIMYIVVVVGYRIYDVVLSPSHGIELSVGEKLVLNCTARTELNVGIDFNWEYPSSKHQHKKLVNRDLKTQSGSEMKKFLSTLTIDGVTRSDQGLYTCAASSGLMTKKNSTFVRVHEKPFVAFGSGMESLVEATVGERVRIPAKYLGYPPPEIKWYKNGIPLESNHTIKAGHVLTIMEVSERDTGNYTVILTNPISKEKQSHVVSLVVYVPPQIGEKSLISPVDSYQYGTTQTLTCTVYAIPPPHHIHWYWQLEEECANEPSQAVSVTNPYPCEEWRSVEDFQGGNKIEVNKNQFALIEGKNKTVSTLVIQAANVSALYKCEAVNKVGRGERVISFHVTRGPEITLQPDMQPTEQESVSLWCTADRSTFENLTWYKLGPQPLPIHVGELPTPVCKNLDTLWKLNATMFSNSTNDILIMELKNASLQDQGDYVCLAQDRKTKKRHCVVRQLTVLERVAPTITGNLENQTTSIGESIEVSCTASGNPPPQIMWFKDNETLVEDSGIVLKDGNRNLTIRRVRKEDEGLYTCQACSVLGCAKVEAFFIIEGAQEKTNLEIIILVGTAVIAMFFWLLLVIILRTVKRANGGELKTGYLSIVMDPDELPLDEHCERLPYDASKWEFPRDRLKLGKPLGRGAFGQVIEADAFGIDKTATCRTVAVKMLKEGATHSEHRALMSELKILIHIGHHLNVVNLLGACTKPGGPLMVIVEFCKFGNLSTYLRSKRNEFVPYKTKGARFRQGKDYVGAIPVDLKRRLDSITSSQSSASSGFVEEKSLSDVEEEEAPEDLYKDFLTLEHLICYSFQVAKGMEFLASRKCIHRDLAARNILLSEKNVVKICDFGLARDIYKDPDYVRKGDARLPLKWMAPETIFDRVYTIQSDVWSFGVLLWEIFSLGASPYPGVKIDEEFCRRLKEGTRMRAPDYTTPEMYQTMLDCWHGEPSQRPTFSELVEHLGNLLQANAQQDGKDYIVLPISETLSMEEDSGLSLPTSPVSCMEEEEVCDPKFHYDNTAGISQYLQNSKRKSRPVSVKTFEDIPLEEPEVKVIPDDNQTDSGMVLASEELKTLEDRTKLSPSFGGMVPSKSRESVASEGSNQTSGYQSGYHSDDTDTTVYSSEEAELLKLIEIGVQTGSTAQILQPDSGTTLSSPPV
Nature of the test: VEGFR2 kinase assay. The following applies: 6 μM ATP, 1 mM MnCl2; rounded to 1 significant figure. It counts as biochemical. A digest of the protocol: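 VEGFR2 phosphorylates CSKtide with 6 μM ATP and 1 mM MnCl2 for 1 hr, otherwise following the Aurora A kinase protocol. Detection by IMAP fluorescence polarization, binding reagent diluted 1:1200 in 1:1 binding buffer A/B. Run in duplicate with solvent control.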

Test [4] has as its system p-H3 in HCT116 cells. Nature of the test: Histone phosphorylation (p-H3) assay. Type of test: cell-based. The following applies: Homo sapiens, HCT-116; HCT116 cells, 4 hr incubation; read-out: p-H3 IC50. A digest of the protocol:
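HCT116 cells (2.5×10^4/well, attached overnight) treated 4 h with 8-point 3-fold compound dilutions at 0.5% DMSO. Lysates dot-blotted onto nitrocellulose and probed for p-H3 with β-actin on the same membrane, fluorescent secondary antibodies, Odyssey scan; duplicate wells.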

In test [5] the test system is HCT116 (human colon carcinoma) cells. Nature of the test: HCT116 cytotoxicity assay (CellTiter-Glo). Type of test: cell-based. Conditions: HCT-116, 72 h, cytotoxicity, three days culture, read-out: HCT116 IC50.
For test [6], the system named is HL60 (human promyelocytic leukemia) cells. Nature of the test: HL60 cytotoxicity assay (CellTiter-Glo). Type of test: cell-based. The following applies: HL-60, 72 h, cytotoxicity, three days culture, read-out: HL60 IC50. The source says:
The cell lines HL60 (human promyelocytic leukemia) and HCT116 (human colon carcinoma) were obtained from the American Type Culture Collection, Manassas, Va., U.S.A., and HUVEC-2 (human umbilical vein endothelial cells) from BD Biosciences, Bedford, Mass., U.S.A. Aurora A kinase was obtained from Upstate Biotech, Billerica, Mass., U.S.A.; Aurora B kinase from BPS Bioscience, San Diego, Calif., U.S.A.; and VEGFR2 kinase from Cell Signaling Technology, Danvers, Mass., U.S.A. The IMAP FP Screening Express kit was obtained from Molecular Devices, Sunnyvale, Calif., U.S.A.; the CellTiter-Glo assay kit from Promega Corporation, Madison, Wis., U.S.A.; and the Cellular DNA Cytometric Analysis Reagent Kit and BrdU labeling and detection kit from Roche Diagnostics Corporation, Indianapolis, Ind., U.S.A. All products were used in accordance with manufacturer's directions. Kinase inhibition assays and the histone phosphorylation (p-H3) assay were conducted in duplicate, and the cytotoxicity and HUVEC proliferation assays were conducted in triplicate, in each case with solvent control.
Log-phase cells were trypsinized, collected by centrifugation, and resuspended in a small volume of fresh medium, and the density of viable cells was determined following Trypan Blue staining. Cells were diluted in fresh media (1×10^4 cells/mL for HL60 and 4×10^4 cells/mL for HCT116 cells), the test compounds (concentrations between 0.1 μM and 200 μM, dissolved in DMSO, 50 μL) added immediately after dilution to achieve a final DMSO concentration of 0.5%, then the suspensions added at 150 μL/well to 96-well plates, and incubated overnight to allow attachment in the case of adherent cells. The cells were cultured for three days (about three doubling times). The cells were then collected by centrifugation, and 100 μL of the culture supernatant was replaced by the CellTiter-Glo reagent. After incubation for 15 minutes at room temperature, the plate was read with a luminometer.
For orientation: In ATP-based viability assays light output follows the ATP content of the culture.

Test [7] has as its system HUVEC-2 (human umbilical vein endothelial cells). Nature of the test: HUVEC VEGF-dependent proliferation assay (BrdU). It counts as cell-based. The following applies: VEGF (25 ng/mL)-dependent proliferation, read-out: HUVEC IC50. An outline of the steps: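 HUVEC-2 cells on gelatin got serially diluted compound (0.5% DMSO final), and VEGF (25 ng/mL) was added 2 hr later. BrdU (10 μM) went in after one day, with labelling for another day. VEGF-dependent proliferation was read by BrdU detection, in triplicate.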

By IC50 is commonly meant the midpoint of a concentration-inhibition curve. `CCN(CCCN1CCOCC1)C(=O)c1ccc2c(c1)S/C(=C(/C(N)=O)c1nccc(C(F)(F)F)n1)N2` [Compound 42A]: the IC50 in test [1] stood at 0.01 µM; in test [2], 0.006 µM; in test [3], 0.02 µM; in test [4] it was 0.3 µM; in test [5] it was 0.5 µM; in test [6], 0.03 µM. Moreover, the IC50 in test [7] was 0.04 µM.

With `NC(=O)/C(=C1\Nc2cc(NC(=O)Cn3ccnc3)ccc2S1)c1nccc(C(F)(F)F)n1` [Compound 88A], the IC50 in test [1] amounted to 0.004 µM; in test [2], 0.008 µM; in test [3] it was 0.02 µM; in test [4], 0.06 µM; in test [5], 0.3 µM; in test [6], 0.1 µM. The IC50 in test [7] came to 0.3 µM.

On to `NC(=O)C(=C1Nc2cc(F)c(F)cc2N1)c1nccc(C(F)(F)F)n1` [Compound 38A], for which the IC50 in test [1] was found to be 0.04 µM; in test [2] it was 0.01 µM; in test [3], 0.2 µM; in test [4], 0.3 µM; in test [5] it was 0.8 µM; in test [6], 1 µM. Moreover, the IC50 in test [7] stood at 0.1 µM.

Turning to `NC(=O)/C(=C1\Nc2ccc(CCN3CCSCC3)cc2S1)c1nccc(C(F)(F)F)n1` [Compound 103A], the half-inhibitory concentration (IC50) in test [1] stood at 0.02 µM; in test [2], 0.01 µM; in test [3], 0.02 µM; in test [4], 2 µM; in test [5], 2 µM; in test [6], 0.1 µM. Further, the 50% inhibitory concentration (IC50) in test [7] worked out at 0.1 µM.

Turning to `NC(=O)/C(=C1\Nc2ccc(C(=O)NCCN3CCOCC3)cc2S1)c1nccc(C(F)(F)F)n1` [Compound 54A], the IC50 in test [1] came to 0.006 µM; in test [2] it was 0.01 µM; in test [3] it was 0.01 µM; in test [4] it was 0.4 µM; in test [5] it was 0.4 µM; in test [6], 0.3 µM. In addition, in test [7], the half-inhibitory concentration (IC50) was 0.03 µM.

Regarding `NC(=O)/C(=C1\Nc2ccccc2S1)c1nccc(C(F)(F)F)n1` [Compound 2A], the half-inhibitory concentration (IC50) in test [1] was 0.03 µM; in test [2], 0.006 µM; in test [3], 0.09 µM; in test [4] it was 2 µM; in test [5], 2 µM; in test [6] it was 3 µM. The concentration for half-maximal inhibition (IC50) in test [7] was 0.05 µM.

In the case of `NC(=O)C(=C1Nc2ccccc2N1)c1nccc(C(F)(F)F)n1` [Compound 1A, 2-[1H-benzimidazol-2(3H)-ylidene]-2-(4-trifluoromethylpyrimidin-2-yl)acetamide], the IC50 stood at 0.01 µM in test [1]; 0.005 µM in test [2]; 0.01 µM in test [3]; 0.2 µM in test [4]; 0.3 µM in test [5]; 1 µM in test [6]. The IC50 in test [7] was found to be 0.07 µM.

For `NC(=O)/C(=C1\Nc2ccc(NC(=O)CCn3ccnc3)cc2N1)c1nccc(C(F)(F)F)n1` [Compound 87A], the half-maximal inhibitory concentration (IC50) in test [1] came to 0.008 µM; in test [2], 0.009 µM; in test [3], 0.01 µM; in test [4], 0.2 µM; in test [5], 0.2 µM; in test [6], 0.1 µM. Also, the 50% inhibitory concentration (IC50) in test [7] turned out to be 0.09 µM.

For the compound `NC(=O)/C(=C1\Nc2cc(F)c(Cl)cc2N1)c1nccc(C(F)(F)F)n1` [Compound 37A], the IC50 is 0.03 µM in test [1]; 0.02 µM in test [2]; 0.4 µM in test [3]; 0.5 µM in test [4]; 2 µM in test [5]; 4 µM in test [6].

`NC(=O)C(=C1Nc2ccc(N)cc2S1)c1nccc(C(F)(F)F)n1` (single isomer, unassigned) [Compound 32A, 2-[6-aminobenzothiazol-2(3H)-ylidene]-2-(4-trifluoromethylpyrimidin-2-yl)acetamide]: the IC50 in test [1] was found to be 0.01 µM; in test [2] it was 0.01 µM; in test [3], 0.04 µM; in test [4] it was 0.4 µM; in test [5] it was 5 µM; in test [6], 3 µM.

For the compound `CCN(CCO)C(=O)c1ccc2c(c1)S/C(=C(/C(N)=O)c1nccc(C(F)(F)F)n1)N2` [Compound 31A], the IC50 in test [1] is 0.004 µM; in test [2], 0.009 µM; in test [3] it was 0.003 µM; in test [4] it was 0.1 µM; in test [5], 0.2 µM; in test [6], 1 µM.

In the case of `NC(=O)/C(=C1\Nc2ccc(-c3cccnc3)cc2N1)c1nccc(C(F)(F)F)n1` [Compound 107A], the half-inhibitory concentration (IC50) in test [1] is 0.008 µM; in test [2], 0.02 µM; in test [3], 0.04 µM; in test [4], greater than 5 µM; in test [5], 5 µM; in test [6] it was 1 µM.

`NC(=O)/C(=C1\Nc2ccc(NC(=O)C3(N)CC3)cc2N1)c1nccc(C(F)(F)F)n1` [Compound 34A]: the IC50 in test [1] turned out to be 0.005 µM; in test [2], 0.006 µM; in test [3] it was 0.01 µM; in test [4], 0.4 µM; in test [5], 0.6 µM; in test [6] it was 0.2 µM.

As for `Cc1cc2c(cc1C)NC(=C(C(N)=O)c1ncc(C(=O)NCCN3CCOCC3)c(C(F)(F)F)n1)N2` [Compound 136A], the IC50 in test [1] was 0.02 µM; in test [3], 0.03 µM; in test [4], 0.2 µM; in test [5] it was 0.8 µM; in test [6], 0.2 µM; in test [7], 0.2 µM.

Consider `NC(=O)/C(=C1\Nc2ccc(CCn3ccnc3)cc2N1)c1nccc(C(F)(F)F)n1` [Compound 96A], for which the concentration for half-maximal inhibition (IC50) stood at 0.002 µM in test [1]; 0.003 µM in test [2]; 0.006 µM in test [3]; 0.04 µM in test [4]; 0.3 µM in test [5]; 0.1 µM in test [6].

Take `COc1ccnc(C(C(N)=O)=C2Nc3ccccc3N2)n1` [Compound 17A]: the IC50 turned out to be 0.3 µM in test [1]; 0.03 µM in test [2]; 0.001 µM in test [3]; 0.6 µM in test [4]; 5 µM in test [5]; 5 µM in test [6].

Take `CC(C)(C)c1cc(C(F)(F)F)nc(C(C(N)=O)=C2Nc3ccccc3S2)n1` (single isomer, unassigned) [Compound 7A, 2-[benzothiazol-2(3H)-ylidene]-2-[4-tert-butyl-6-(trifluoromethyl)pyrimidin-2-yl]acetamide]: the half-maximal inhibitory concentration (IC50) in test [1] is 0.007 µM; in test [2] it was 0.02 µM; in test [3], 0.03 µM; in test [4], greater than 5 µM; in test [5], 6 µM; in test [6], 0.08 µM.
